# Results as given in PMC11314561, “Design and Synthesis of Novel Aminoindazole-pyrrolo[2,3-b]pyridine Inhibitors of IKKα That Selectively Perturb Cellular Non-Canonical NF-κB Signalling” (Molecules, 2024).
# What was measured:
# [1] = system: p100 phosphorylation (Ser866/870) in PC-3M cells; assay: LTα1β2-stimulated p100 phosphorylation, Western blotting; format: cell-based; details: Homo sapiens, 1 h pre-treatment, LTα1β2 4 h
# Protocol: (§1) U2OS cells were cultured in McCoy’s 5A Modified Medium, and PC-3M-Luc-C6 prostate cancer cells were cultured in Minimum Essential Medium (MEM), each containing 10% (v/v) Foetal Calf Serum (FCS), L-glutamine ([…]), and penicillin/streptomycin (250 units/mL; 100 μg/mL) and incubated in a humidified atmosphere at 37 °C with 5% (v/v) CO2. Cells were grown to near confluence and prior to experimentation rendered quiescent by serum deprivation for 24 h.
# For examination of potential effects of compound on non-canonical NF-κB signalling, cells were exposed to vehicle (DMSO; 0.03–0.05% (v/v)) or increasing concentrations of compounds (0.01–30 µM) for 1 h prior to treatment with FCS (10% (v/v); for U2OS cells) or LTα1β2 (20 ng/mL; for PC-3M cells) for 4 h. The status of p-p100 (Ser 866/870) in whole-cell extracts prepared from 12-well plates was assessed by Western blotting, as described in McKenzie et al.. […] Thereafter, p52 and RelB status in crude nuclear extracts normalised for protein amounts were assessed by Western blotting.
# (§2) Each figure/panel of Western blotting data represents one of at least three separate experiments. Western blots were scanned and imaged using Adobe Photoshop 5.0.2 software and polypeptide bands were semi-quantified by scanning densitometry using the Scion Image program. […]
# IKKβ = molecular target: T1, IKKβ (Homo sapiens, UniProt O14920); assay: DELFIA kinase assay, IKKβ; format: biochemical; details: read-out: Ki Values IKKβ
# T1 sequence (O14920 1-756): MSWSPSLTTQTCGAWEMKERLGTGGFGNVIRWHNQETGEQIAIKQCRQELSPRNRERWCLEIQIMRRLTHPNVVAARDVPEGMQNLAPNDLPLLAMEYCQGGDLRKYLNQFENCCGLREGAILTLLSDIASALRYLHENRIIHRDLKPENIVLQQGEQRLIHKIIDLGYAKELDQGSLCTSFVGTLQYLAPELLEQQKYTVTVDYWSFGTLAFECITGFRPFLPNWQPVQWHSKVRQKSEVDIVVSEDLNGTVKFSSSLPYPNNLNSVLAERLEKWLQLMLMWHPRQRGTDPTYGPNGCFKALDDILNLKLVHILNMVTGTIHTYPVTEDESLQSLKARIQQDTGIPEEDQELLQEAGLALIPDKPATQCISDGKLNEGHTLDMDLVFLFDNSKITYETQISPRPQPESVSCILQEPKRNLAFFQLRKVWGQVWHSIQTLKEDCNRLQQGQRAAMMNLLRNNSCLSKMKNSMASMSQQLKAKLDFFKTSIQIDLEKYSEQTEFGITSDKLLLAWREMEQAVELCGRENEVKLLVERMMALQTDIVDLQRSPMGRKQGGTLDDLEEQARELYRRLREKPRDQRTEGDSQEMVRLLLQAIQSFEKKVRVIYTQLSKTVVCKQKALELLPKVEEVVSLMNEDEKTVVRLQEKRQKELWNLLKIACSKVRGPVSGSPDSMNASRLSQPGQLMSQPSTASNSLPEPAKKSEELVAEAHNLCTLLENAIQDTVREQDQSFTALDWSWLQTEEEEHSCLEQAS
# Protocol: IKKα and IKKβ inhibitory activity were determined using a dissociation-enhanced ligand fluorescent immunoassay (DELFIA) based on the protocol of HTScan™ IKKβ Kinase Assay (Cell Signaling Technology, Danvers, MA, USA) as described in [24].
# Turbidimetric solubility = format: physicochemical; details: pH 7.4, aqueous buffer, kinetic from dmso stock, 0.01 M phosphate-buffered saline pH7.4
# Protocol: Pharmacokinetic studies were contracted to Sygnature Discovery Limited. Turbidimetric Solubility was determined by diluting compound solutions (1 μM, 3 μM, 10 μM, 30 μM, 100 μM) prepared in DMSO into 0.01 M phosphate-buffered saline pH7.4. Turbidimetry was used as the endpoint by measuring absorbance at 620 nm.
# [2] = system: p65 (Ser536) phosphorylation in PC-3M cells; assay: TNFα-stimulated p65 (Ser536) phosphorylation, Western blotting; format: cell-based; details: 0.1–10 µM
# Protocol: as §1
# To examine the potential impact of compounds on canonical NF-κB signalling, cells were then exposed to vehicle (DMSO; 0.05% (v/v)) or increasing concentrations of compounds (0.01–30 µM) for 1 h prior to treatment with TNF⍺ (20 ng/mL) for 30 min. Whole-cell extracts were prepared, and the status of IκB⍺, phospho-p65 (Ser536), p65, and phospho-p105 ([…]) was also assessed by Western blotting.
# as §2, with “program. Data were normalised to fold expression/inhibition relative to ‘agonist plus vehicle’ treatment and expressed as mean ± s.e.m. IC50 values were established by curve fitting using the Hill equation.” for “program.”
# panel of 231 kinases = assay: Kinome profiling, summary; format: biochemical, human; details: 1 μM
# Description: (§3) We profiled three compounds from the series across the kinome (Table S1).
# (§4) Ta b l e S1. The % inhibition of compounds 4, 5r [SU1261], and 6g [SU1349] against a
# (§5) panel of kinase enzymes. We proϐiled three compounds from the series across 231
# (§6) kinases. For SU1349, given its structural similarity with SU1261, we selected 98 from the
# (§7) Tested kinase % inhibiƟon
# MLCK(h) = assay: kinase panel; format: biochemical, human; details: 1 μM
# Description: as §3, §4, §5, §6, §7
IC50 [1],Ki (IKKβ),solubility (Turbidimetric solubility),% inhibition MLCK(h) (MLCK(h)),Compound,effect on TNFα-stimulated p65 (Ser536) phosphorylation [2],number of kinases inhibited by >80% (panel of 231 kinases)
200 nM,3350 nM,20 µM,–,Nc1n[nH]c2ccc(-c3ccnc4[nH]c(-c5ccnc(OCc6ccccc6)c5)cc34)cc12 [Compound 6g [SU1349]],no impact,–
–,15 nM,–,0%,Nc1n[nH]c2ccc(-c3ccnc4[nH]c(-c5ccccc5)cc34)cc12 [Compound 4],–,44 kinases
570 nM,680 nM,< 1 µM,-10%,Nc1n[nH]c2ccc(-c3ccnc4[nH]c(-c5cccc(OCc6ccccc6)c5)cc34)cc12 [Compound 5r [SU1261]],did not impact,10 kinases
